Here are results for 47 compounds from PubChem BioAssay AID652125 (The Scripps Research Institute Molecular Screening Center, 2013).

The structures appear in SMILES notation. Calls of active or inactive are those of the source. No rule for the calls is given here.

In the test the target is Perilipin-1 (Homo sapiens) + 1-acylglycerol-3-phosphate O-acyltransferase ABHD5 (Homo sapiens) (UniProt O60240+Q8WTS1). The experiment in a line: PubChem AID 652125. Conditions: biochemical ABHD5-PLIN1 interaction, luminescence.
As a reminder, the IC50 is the point on the concentration scale where inhibition reaches its midpoint. Take `COc1ccc(CC(=O)N2CCCN(S(=O)(=O)c3ccc(C)cc3)CC2)cc1OC`: the IC50 was > 39.8 µM (inactive).

On to `CCCCCNC(=O)Nc1ccc2c(c1)Sc1ccccc1C(=O)N2C`, for which the IC50 is > 39.8 µM (inactive). Regarding `O=C(Cc1cccc(F)c1)N1CCN(S(=O)(=O)c2ccc3c(c2)OCCO3)CC1`, the IC50 is > 39.8 µM (inactive).

As to `O=C(CCn1cnc2ccccc21)N1CCN(S(=O)(=O)c2ccc3c(c2)OCCO3)CC1`, the IC50 was > 39.8 µM (inactive).

On to `CCCS(=O)(=O)c1ccc(Cl)c(C(=O)Nc2ccc(C(=O)OCC)cc2)c1`, for which the IC50 was 5.32 µM. With `CN1C(=O)c2ccccc2Sc2ccc(NC(=O)NCCCc3ccccc3)cc21` the figure was 1.73 µM. With `Cc1ccc2c(CC(=O)N3CCN(S(=O)(=O)c4ccc5c(c4)OCCCO5)CC3)coc2c1C` the figure was 3.74 µM; with `CCCC(=O)Nc1ccc2c(c1)C(=O)N(C)c1ccccc1O2`, > 39.8 µM (inactive). Take `CCCCCCNC(=O)Nc1ccc2c(c1)Sc1ccccc1C(=O)N2C`: the IC50 is > 39.8 µM (inactive). For the compound `COc1ccc(CC(=O)N2CCN(S(=O)(=O)c3ccc4c(c3)OCCCO4)CC2)cc1`, the IC50 is > 39.8 µM (inactive). With `CCc1ccc2c(CC(=O)N3CCN(S(=O)(=O)c4ccc5c(c4)OCCO5)CC3)coc2c1`, the IC50 was 2.54 µM. With `CCCS(=O)(=O)c1ncc(Cl)c(C(=O)Nc2ccc(C(=O)OC)cc2)n1` the figure was 5.42 µM; with `CN1C(=O)c2ccccc2Oc2ccc(NC(=O)c3cccs3)cc21`, > 39.8 µM (inactive).

Take `CC(C)N1C(=O)c2ccccc2Oc2ccc(NC(=O)c3ccccc3)cc21`: the IC50 is > 39.8 µM (inactive). Turning to `CCCC(=O)N(CCCN1CCOCC1)c1nc2ccc(Cl)cc2s1`, the IC50 was > 39.8 µM (inactive). Then `CCCCCCCNC(=O)Nc1ccc2c(c1)Sc1ccccc1C(=O)N2C`, with “inactive”. Then `CCCNC(=O)Nc1ccc2c(c1)N(CC)C(=O)c1ccccc1S2`, with “inactive”; and `CN(C)CCCN(C(=O)c1cc2ccccc2oc1=O)c1nc2ccc(Cl)cc2s1`, with “inactive”. With `CN(C)CCCN(C(=O)Cc1ccc(F)cc1)c1nc2ccc(Cl)cc2s1` the entry was “inactive”; with `NS(=O)(=O)c1ccc(NC(=O)c2nc(S(=O)(=O)Cc3ccccc3)ncc2Cl)cc1`, 4.22 µM. Turning to `CS(=O)(=O)c1ncc(Cl)c(C(=O)Nc2ccc(C(F)(F)F)cc2)n1`, the IC50 was 1.42 µM. As for `CN(C(=O)c1nc(S(C)(=O)=O)ncc1Cl)c1ccccc1`, the IC50 was 3.43 µM.

As to `CN(C)CCCN(C(=O)C1CCCCC1)c1nc2cc(Br)ccc2s1`, the IC50 entry was “inactive”. With `O=C(c1nc(S(=O)(=O)Cc2ccccc2)ncc1Cl)N(Cc1ccccc1)Cc1ccco1`, the IC50 is 1.41 µM. With `COc1ccc(OCC(=O)Nc2ccc3c(c2)N(C(C)C)C(=O)c2ccccc2O3)cc1` the figure was > 39.8 µM (inactive); with `Cc1ccc(CS(=O)(=O)c2ncc(Cl)c(C(=O)Nc3cccc4ccccc34)n2)cc1`, 2.29 µM; with `CC(NC(=O)CN1CCN(S(=O)(=O)c2ccc3c(c2)OCCCO3)CC1)c1cc2ccccc2o1` (configuration not stated), > 39.8 µM (inactive). Take `CCS(=O)(=O)c1ncc(Cl)c(C(=O)Nc2ccc(C)cc2)n1`: the IC50 is 3.53 µM. With `O=C(C1COc2ccccc2O1)N1CCN(S(=O)(=O)c2ccc3c(c2)OCCO3)CC1` (configuration not stated), the IC50 was > 39.8 µM (inactive). As for `CN1C(=O)c2ccccc2Sc2ccc(NC(=O)NCCc3ccccc3)cc21`, the IC50 was 3.57 µM. Consider `COc1ccc(CCNC(=O)c2nc(S(=O)(=O)Cc3ccc(F)cc3)ncc2Cl)cc1OC`, for which the IC50 is 2.5 µM. Consider `Cc1ccc(CS(=O)(=O)c2ncc(Cl)c(C(=O)NCc3ccc4c(c3)OCO4)n2)cc1`, for which the IC50 was 3.2 µM. With `CN(C)CCCN(C(=O)CCc1ccccc1)c1nc2ccc(Cl)cc2s1` the entry was “inactive”; with `Cc1ccc2cc(CC(=O)N3CCN(S(=O)(=O)c4ccc5c(c4)OCCO5)CC3)oc2c1`, “inactive”; with `CN(C)CCCN(C(=O)C1CCCCC1)c1nc2cc(Cl)ccc2s1`, > 39.8 µM (inactive). Then `CCS(=O)(=O)c1ncc(Cl)c(C(=O)Nc2ccc(S(N)(=O)=O)cc2)n1`, with 6.72 µM; and `O=C(CCc1c[nH]c2ccccc12)N1CCN(S(=O)(=O)c2ccc3c(c2)OCCO3)CC1`, with > 39.8 µM (inactive).

Consider `CN1C(=O)c2ccccc2Oc2ccc(NC(=O)c3cc4ccccc4[nH]3)cc21`, for which the IC50 was > 39.8 µM (inactive). With `O=C(CCc1nc2ccccc2s1)N1CCN(S(=O)(=O)c2ccc3c(c2)OCCO3)CC1` the entry was “inactive”. In the case of `Cc1ccc(CS(=O)(=O)c2ncc(Cl)c(C(=O)N3CCN(C)CC3)n2)cc1`, the IC50 is 5.75 µM.

For the compound `O=C(Nc1ccc2ccccc2c1)c1nc(S(=O)(=O)Cc2ccccc2)ncc1Cl`, the IC50 is 2.2 µM. For `CCCC(=O)Nc1ccc2c(c1)C(=O)N(C)c1cc(C)ccc1O2`, the IC50 was > 39.8 µM (inactive). With `O=C(Cc1ccc2c(c1)CCCC2)N1CCN(S(=O)(=O)c2ccc3c(c2)OCCO3)CC1` the entry was “inactive”. With `Cc1ccc(NC(=O)c2nc(S(C)(=O)=O)ncc2Cl)cc1` the figure was 3.5 µM; with `CN1C(=O)c2ccccc2Sc2ccc(NC(=O)NCCc3cccs3)cc21`, 4.31 µM. For `Cc1ccc(CS(=O)(=O)c2ncc(Cl)c(C(=O)Nc3nnc(C(C)C)s3)n2)cc1`, the IC50 is > 39.8 µM (inactive).

`Cc1ccc(CS(=O)(=O)c2ncc(Cl)c(C(=O)Nc3cccc(C(F)(F)F)c3)n2)cc1`: the IC50 was 2.11 µM.
